Source: patent US11492321B2, “Method for producing capped 3-hydroxycarboxylic acids and their salts and esters” (IOI Oleo GmbH, priority 2019, dated 2022)

Legend:
[1] = Cleavage experiments in FaSSGF medium simulating the stomach; assay type: in vitro ADME; conditions: in the presence or absence of pancreatin
From the text: (§1) By means of cleavage experiments it is shown that reaction products prepared according to the invention or mixtures thereof can be cleaved in the human gastrointestinal tract. The starting mixture used is, on the one hand, a 3-acetoxybutyric acid ethyl ester obtained and purified by the process according to the invention as described hereinabove and, on the other hand, in each case the 3-BHB ethyl esters capped in the 3-position with the carboxylic acid anhydride (heptanoic acid anhydride, lauric acid anhydride or oleic acid anhydride) obtained and purified by the process according to the invention as described hereinabove.
(§2) For the cleavage experiments under near-body conditions two media are investigated: • FaSSGF, which simulates the stomach • FaSSIF, which simulates the intestinal tract
(§3) Both media are from the company Biorelevant®, Ltd. in Great Britain. In addition, in some experiments porcine pancreas is added (Panzytrat® 40,000, Fa. Allergan).
(§4) Under FaSSIF conditions, a lower conversion using Panzytrat® takes place.

[2] = Cleavage experiments in FaSSIF medium simulating the intestinal tract; assay type: in vitro ADME; conditions: in the presence or absence of pancreatin
From the text: as §1, §2, §3, §4

[3] = even if several grams are taken; patients; cited from earlier work

| SMILES | cleavage in gastric medium [1] | cleavage in intestinal medium [2] | duration of ketosis [3] |
| --- | --- | --- | --- |
| CCOC(=O)CC(C)OC(C)=O (stereo not drawn) [3-acetoxybutyric acid ethyl ester] | cleavage to 3-BHB in free form | cleavage to 3-BHB in free form |  |
| CC(O)CC(=O)O (stereo not drawn) [3-hydroxybutyric acid] |  |  | three to four |
